Measurements as given in BindingDB's records for doi:10.1007/s002109900141 (Novartis Pharma, 1999).
Values joined by “and” are separate entries in the source; they are usually repeats but may differ in a detail not shown here. Equal values may be shown once. *1 amine or outer side, *2 acyl side, *3 side chain or, on linkers, in order; H or OH if unused. Where a SMILES comes first, the peptide text is derived from it. Bridges are numbered along the chain shown (N, C = ends). [ ]: non-standard residue; d: D form. The star is where a group is joined. d1Nal = N[C@H](Cc1cccc2ccccc12)C(=O)O; Asu = N[C@@H](CCCCCC(=O)O)C(=O)O; X1 = O=C(C(N[*:1])S[*:3])[*:2]; Ahp = NCCCCCCC(=O)O; Bn = c1ccc(C*)cc1; Mpa = O=C(O)CCS

What was measured:
[1] = target: Somatostatin receptor type 4 (Homo sapiens, UniProt P31391)
[2] = target: Somatostatin receptor type 3 (Homo sapiens, UniProt P32745)
[3] = target: Somatostatin receptor type 1 (Homo sapiens, UniProt P30872)
[4] = target: Somatostatin receptor type 5 (Homo sapiens, UniProt P35346)
[5] = target: Somatostatin receptor type 2 (Homo sapiens, UniProt P30874)
Somatostatin receptor type 2, sequence (P30874 whole entry): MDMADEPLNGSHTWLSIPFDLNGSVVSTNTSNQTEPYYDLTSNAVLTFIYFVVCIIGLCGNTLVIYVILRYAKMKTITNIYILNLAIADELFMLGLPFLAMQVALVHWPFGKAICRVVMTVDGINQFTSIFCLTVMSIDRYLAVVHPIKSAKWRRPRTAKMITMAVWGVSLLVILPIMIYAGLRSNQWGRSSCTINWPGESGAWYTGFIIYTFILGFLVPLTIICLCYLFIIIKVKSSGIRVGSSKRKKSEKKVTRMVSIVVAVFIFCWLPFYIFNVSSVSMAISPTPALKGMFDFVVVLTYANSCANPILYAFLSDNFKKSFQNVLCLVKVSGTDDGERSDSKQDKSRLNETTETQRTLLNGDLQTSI

Somatostatin receptor type 3, sequence (P32745 whole entry): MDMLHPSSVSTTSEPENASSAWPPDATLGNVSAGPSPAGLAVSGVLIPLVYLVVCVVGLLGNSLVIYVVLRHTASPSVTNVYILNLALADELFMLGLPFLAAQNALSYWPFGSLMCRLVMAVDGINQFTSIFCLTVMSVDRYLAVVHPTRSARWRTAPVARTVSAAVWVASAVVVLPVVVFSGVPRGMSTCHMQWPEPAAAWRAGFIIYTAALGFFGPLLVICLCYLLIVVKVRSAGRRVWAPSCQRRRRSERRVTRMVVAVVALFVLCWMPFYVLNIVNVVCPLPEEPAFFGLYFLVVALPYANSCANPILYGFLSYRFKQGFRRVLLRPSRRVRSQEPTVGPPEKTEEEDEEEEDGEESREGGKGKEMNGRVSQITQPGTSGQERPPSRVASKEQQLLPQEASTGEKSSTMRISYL
Somatostatin receptor type 1, sequence (P30872 whole entry): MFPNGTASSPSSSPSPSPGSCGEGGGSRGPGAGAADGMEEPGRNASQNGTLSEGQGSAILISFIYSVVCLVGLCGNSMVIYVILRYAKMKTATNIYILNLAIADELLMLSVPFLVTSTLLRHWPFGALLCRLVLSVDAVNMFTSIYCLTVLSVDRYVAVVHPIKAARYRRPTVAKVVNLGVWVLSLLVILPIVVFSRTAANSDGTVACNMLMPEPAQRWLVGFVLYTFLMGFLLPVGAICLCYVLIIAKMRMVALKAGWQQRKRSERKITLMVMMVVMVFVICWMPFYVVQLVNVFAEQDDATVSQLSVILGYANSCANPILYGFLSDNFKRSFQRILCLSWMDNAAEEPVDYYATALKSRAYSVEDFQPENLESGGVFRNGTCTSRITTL
Somatostatin receptor type 4, sequence (P31391 whole entry): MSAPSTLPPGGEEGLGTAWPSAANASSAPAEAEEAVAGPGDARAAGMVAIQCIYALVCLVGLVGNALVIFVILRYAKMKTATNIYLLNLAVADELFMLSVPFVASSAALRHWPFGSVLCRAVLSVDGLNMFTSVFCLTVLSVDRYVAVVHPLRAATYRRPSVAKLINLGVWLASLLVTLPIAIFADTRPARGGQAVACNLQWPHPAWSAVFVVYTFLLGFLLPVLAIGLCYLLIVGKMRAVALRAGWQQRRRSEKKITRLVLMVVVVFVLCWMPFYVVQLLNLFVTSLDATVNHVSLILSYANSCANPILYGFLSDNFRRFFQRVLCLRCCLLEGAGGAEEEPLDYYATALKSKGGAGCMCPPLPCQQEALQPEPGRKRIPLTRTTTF
Somatostatin receptor type 5, sequence (P35346 whole entry): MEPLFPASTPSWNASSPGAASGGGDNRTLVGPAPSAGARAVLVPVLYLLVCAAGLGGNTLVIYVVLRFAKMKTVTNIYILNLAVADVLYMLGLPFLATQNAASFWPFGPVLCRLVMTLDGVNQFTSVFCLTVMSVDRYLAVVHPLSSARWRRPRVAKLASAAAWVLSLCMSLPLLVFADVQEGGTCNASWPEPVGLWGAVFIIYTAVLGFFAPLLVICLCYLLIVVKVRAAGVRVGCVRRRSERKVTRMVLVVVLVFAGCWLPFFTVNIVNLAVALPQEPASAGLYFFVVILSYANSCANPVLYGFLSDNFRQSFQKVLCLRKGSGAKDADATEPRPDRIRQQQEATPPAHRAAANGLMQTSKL

| Compound | Ki [1] | Ki [2] | Ki [3] | Ki [4] | Ki [5] |
| --- | --- | --- | --- | --- | --- |
| C[C@@H](O)[C@@H]1NC(=O)[C@H](CCCCN)NC(=O)[C@@H](Cc2c[nH]c3ccccc23)NC(=O)[C@H](Cc2ccccc2)NC(=O)[C@@H]2CCCN2C(=O)[C@H](Cc2ccccc2)NC1=O (cyclo(PF[dW]KTF)) | 2290 nM | 107 nM | 2190 nM | – | – |
| CSCC[C@H](NC(=O)[C@H](CCCN=C(N)N)NC(=O)[C@@H](N)CC(=O)O)C(=O)N1CCC[C@H]1C(=O)N[C@H]1CSSC[C@@H](C(=O)N[C@@H](CCCCN)C(=O)O)NC(=O)[C@H](CO)NC(=O)[C@H](CO)NC(=O)[C@H](Cc2ccccc2)NC(=O)[C@H]([C@@H](C)O)NC(=O)[C@H](CCCCN)NC(=O)[C@H](Cc2c[nH]c3ccccc23)NC(=O)[C@H](Cc2ccccc2)NC(=O)[C@H](Cc2ccccc2)NC(=O)[C@H](CC(N)=O)NC(=O)[C@H](CCCN=C(N)N)NC1=O [Cortistatin] | 0.54 nM and 0.57 nM | 0.13 nM | 0.33 nM and 0.24 nM | 0.06 nM and 0.28 nM and 0.42 nM and 0.14 nM | 0.46 nM and 1.41 nM |
| CC(C)[C@@H]1NC(=O)[C@H](CCCCN)NC(=O)[C@@H](Cc2c[nH]c3ccccc23)NC(=O)[C@H](Cc2ccc(O)cc2)NC(=O)[C@H](C)N(C)C(=O)[C@H](Cc2ccccc2)NC1=O [seglitide] | – | 20.9 nM | – | – | – |
| C[C@@H](O)[C@H](NC(=O)[C@H](Cc1ccccc1)NC(=O)[C@@H](NC(=O)[C@H](CCCCN)NC(=O)[C@@H](Cc1c[nH]c2ccccc12)NC(=O)[C@H](Cc1ccccc1)NC(=O)[C@H](Cc1ccccc1)NC(=O)[C@H](N)Cc1ccccc1)[C@@H](C)O)C(N)=O [CAS_133073-82-2] (H-[dF]FF[dW]KTFT-NH2) | 7.41 nM | 0.19 nM | 6.76 nM | – | – |
| C[C@@H](O)[C@@H]1NC(=O)[C@H](CCCCN)NC(=O)[C@H](Cc2c[nH]c3ccccc23)NC(=O)[C@H](Cc2ccccc2)NC(=O)[C@H](Cc2ccccc2)NC(=O)[C@H](CC(N)=O)NC(=O)[C@H](CCCCN)NC(=O)[C@@H](NC(=O)[C@@H]2CCCN2)CSSC[C@@H](C(=O)N[C@@H](CCCCN)C(=O)O)NC(=O)[C@H](CO)NC(=O)[C@H](CO)NC(=O)[C@H](Cc2ccc(O)cc2)NC1=O [CST14-Tyr10] (H-PCKNFFWKTYSSCK-OH; disulfide 2-13) | 5.01 nM and 3.63 nM and 6.76 nM | 0.95 nM and 1.99 nM and 1.25 nM | 4.78 nM and 2.75 nM and 0.91 nM | – | 1.17 nM and 1.69 nM and 1.23 nM and 1 nM |
| CC(C)C[C@H](NC(=O)[C@H](C)NC(=O)[C@@H]1CCCN1C(=O)[C@H](CC(N)=O)NC(=O)[C@H](CO)NC(=O)[C@H](CC(N)=O)NC(=O)[C@H](C)NC(=O)[C@@H](N)CO)C(=O)N[C@@H](C)C(=O)N1CCC[C@H]1C(=O)N[C@@H](CCCN=C(N)N)C(=O)N[C@@H](CCC(=O)O)C(=O)N[C@@H](CCCN=C(N)N)C(=O)N[C@@H](CCCCN)C(=O)N[C@@H](C)C(=O)NCC(=O)N[C@H]1CSSC[C@@H](C(=O)O)NC(=O)[C@H](CO)NC(=O)[C@H]([C@@H](C)O)NC(=O)[C@H](Cc2ccc(O)cc2)NC(=O)[C@H]([C@@H](C)O)NC(=O)[C@H](CCCCN)NC(=O)[C@@H](Cc2c[nH]c3ccccc23)NC(=O)[C@H](Cc2ccccc2)NC(=O)[C@H](Cc2ccccc2)NC(=O)[C@H](CC(N)=O)NC(=O)[C@H](CCCCN)NC1=O [LTT-SRIF28] (H-SANSNPALAPRERKAGCKNFF[dW]KTYTSC-OH; disulfide 17-28) | 0.42 nM and 0.69 nM and 0.74 nM | 0.08 nM and 0.14 nM and 0.54 nM | 0.74 nM and 0.6 nM and 0.52 nM | 7.58 nM | – |
| CC(C)[C@@H]1NC(=O)[C@H](CCCCN)NC(=O)[C@@H](Cc2c[nH]c3ccccc23)NC(=O)[C@H](Cc2ccc(O)cc2)NC(=O)CCSSC(C(=O)N[C@@H](Cc2ccccc2)C(N)=O)NC1=O (stereo partly specified) [CAS_117580-24-2] ([Mpa]Y[dW]KV[X1]F-NH2; disulfide 1-6) | 2950 nM | 22.9 nM | 6760 nM | – | – |
| C[C@@H](O)[C@@H]1NC(=O)[C@H](Cc2ccc(O)cc2)NC(=O)[C@H]([C@@H](C)O)NC(=O)[C@H](CCCCN)NC(=O)[C@H](Cc2c[nH]c3ccccc23)NC(=O)[C@H](Cc2ccccc2)NC(=O)[C@H](Cc2ccccc2)NC(=O)[C@H](CC(N)=O)NC(=O)[C@H](CCCCN)NC(=O)CCCCC[C@@H](C(=O)O)NC(=O)[C@H](CO)NC1=O [CGP-23996] (KNFFWKTYTS[Asu]-OH; lactam N-11) | 2.39 nM | 0.7 nM | 3.54 nM | – | – |
| CC(C)[C@H](NC(=O)[C@H](CCCCN)NC(=O)[C@@H](Cc1c[nH]c2ccccc12)NC(=O)[C@H](Cc1ccc(O)cc1)NC(=O)[C@H](Cc1ccccc1)NC(=O)[C@H](N)Cc1ccccc1)C(=O)N[C@@H](Cc1ccccc1)C(=O)N[C@H](Cc1cccc2ccccc12)C(N)=O [BIM 23056] (H-[dF]FY[dW]KVF[d1Nal]-NH2) | 91.2 nM | 63.1 nM | 275 nM | – | – |
| C[C@@H](O)[C@@H]1NC(=O)[C@H](CCCCN)NC(=O)[C@@H](Cc2c[nH]c3ccccc23)NC(=O)[C@H](Cc2ccc(O)cc2)NC(=O)[C@@H](NC(=O)[C@H](N)Cc2ccccc2)CSSC[C@@H](C(=O)N[C@H](CO)[C@@H](C)O)NC1=O [10-(4-Amino-butyl)-19-(2-amino-3-phenyl-propionylamino)-16-(4-hydroxy-benzyl)-7-(1-hydroxy-ethyl)-13-(1H-indol-3-ylmethyl)-6,9,12,15,18-pentaoxo-1,2-dithia-5,8,11,14,17-pentaaza-cycloicosane-4-carboxylic acid (2-hydroxy-1-hydroxymethyl-propyl)-amide] | 1290 nM and 513 nM and 676 nM | – | 2040 nM and 2690 nM and 1510 nM | – | – |
| C[C@@H](OCc1ccccc1)[C@@H]1NC(=O)[C@H](CCCCN)NC(=O)[C@@H](Cc2c[nH]c3ccccc23)NC(=O)[C@H](Cc2ccccc2)NC(=O)CCCCCCNC1=O [c[Aha-Phe-D-Trp-Lys-Thr(Bzl)]] (cyclo([Ahp]F[dW]KT(Bn))) | 513 nM | 132 nM | 331 nM | – | – |
| C[C@@H](O)[C@@H]1NC(=O)[C@H](CCCCN)NC(=O)[C@H](Cc2c[nH]c3ccccc23)NC(=O)[C@H](Cc2ccccc2)NC(=O)[C@H](Cc2ccccc2)NC(=O)[C@H](CC(N)=O)NC(=O)[C@H](CCCCN)NC(=O)[C@@H](NC(=O)[C@@H]2CCCN2)CSSC[C@@H](C(=O)N[C@@H](CCCCN)C(=O)O)NC(=O)[C@H](CO)NC(=O)[C@H](CO)NC(=O)[C@H](Cc2ccccc2)NC1=O [Cortistatin(1-14)] (H-PCKNFFWKTFSSCK-OH; disulfide 2-13) | 2.69 nM | 0.53 nM | 0.85 nM | – | – |
| CC(C)[C@@H]1NC(=O)[C@H](CCCCN)NC(=O)[C@@H](Cc2c[nH]c3ccccc23)NC(=O)[C@H](Cc2ccc(O)cc2)NC(=O)[C@@H](NC(=O)[C@H](N)Cc2ccccc2)CSSC[C@@H](C(=O)N[C@@H](Cc2c[nH]c3ccccc23)C(N)=O)NC1=O [CAS_71306] (H-[dF]CY[dW]KVCW-NH2; disulfide 2-7) | 107 nM | 15.1 nM | 224 nM | – | – |
| CC(C)[C@@H]1NC(=O)[C@H](CCCCN)NC(=O)[C@@H](Cc2c[nH]c3ccccc23)NC(=O)[C@H](Cc2ccc(O)cc2)NC(=O)[C@@H](NC(=O)[C@H](N)Cc2ccc3ccccc3c2)CSSC[C@@H](C(=O)N[C@H](C(N)=O)[C@@H](C)O)NC1=O [3-(2-Naphtyl)-D-Ala-L-Cys(1)-L-Tyr-D-Trp-L-Lys-L-Val-L-Cys(1)-L-Thr-NH2] | – | 11.7 nM | 178 nM | – | 0.37 nM |
| C[C@@H](O)[C@@H]1NC(=O)[C@H](CCCCN)NC(=O)[C@@H](Cc2c[nH]c3ccccc23)NC(=O)[C@H](Cc2c[nH]c3ccccc23)NC(=O)[C@H](Cc2ccccc2)NC(=O)CCCCCCNC(=O)[C@H](Cc2ccccc2)NC1=O [L-362855] (cyclo([Ahp]FW[dW]KTF)) | 83.2 nM | 5.12 nM | 832 nM | – | – |
